Test results published in patent US12377087B2, “Compounds for the treatment of cancer” (UNIVERSITY OF LOUISVILLE RESEARCH FOUNDATION, INC., priority 2015, dated 2025).

Tests used:
[1] = biological target: human recombinant PFKFB4 (Homo sapiens, UniProt Q16877); assay: fructose-6-phosphate kinase activity of human recombinant PFKFB4 (in vitro kinase assay); assay type: biochemical
Method: Kinase assays: The fructose-6-phosphate kinase activity of human recombinant PFKFB4 in the presence of DMSO±indicated 5MPN concentrations was assayed as previously described. The activity of 5MPN against 97 kinases was examined using a commercially available active-site dependent competition binding assay core service (KINOMEscanEDGE) that quantifies the capacity of lest agents to compete with an immobilized, active-site directed ligand using a DNA-tagged kinase and immobilized ligand and compound. For example, enzyme inhibition was studies using a ADP-Glo assay. […] ADP is converted into ATP, which is converted into light by a luciferase.

[2] = test system: LLC xenografts; assay: intratumoral F2,6BP in LLC xenografts; assay type: in vivo, C57BL/6 mice; settings: 120 mg/kg by gavage daily, 10 days
Method: F2,6BP measurements: Cells or tissues were prepared as previously described and F2,6BP content measured using a coupled enzyme reaction following the method of Van Schaftingen et at (Van Schaftingen E et al. A kinetic study of pyrophosphate: fructose-6-phosphate phosphotransferase from potato tubers. Application to a microassay of fructose 2,6-bisphosphate. Eur J Biochem 1982 December; 129(1): 191-5) and normalized to total cellular protein measured by the bicinchoninic acid assay (BCA, Thermo Scientific). […] In order to measure F2,6BP, cells were harvested, washed with PBS, lysed in NaOH/Tris acetate by heating at 80° C. and lysates neutralized to pH 7.2. F2,6BP content was measured using a coupled enzyme reaction following the method of Van Schaftingen et al (Eur J Biochem. 1982; 129(1): 191-195). The F2,6BP concentration was normalized to total cellular protein measured by the bicinchoninic acid assay (BCA, Thermo Scientific) All data are expressed as the mean±SD of three experiments. Statistical significance was assessed by the two-sample t test (independent variable).
At the end of the experiment, animals were euthanized, tumors removed and sections fixed in 10% formaldehyde for immunohistochemistry or snap-frozen in liquid nitrogen for analyses. […]

[3] = test system: hT/LT/Ras cells; assay: viable cell count of hT/LT/Ras cells; assay type: cell-based, human; settings: 48 hours
Source text: Cell lines and cell culture: H460, H1299, H441, H522 and A549 non-small cell lung cancer (NSCLC), MDA-MB-231 (breast), LNCaP (prostatic) and HCT116 (colon) adenocarcinoma and Lewis lung carcinoma (LLC) cell lines were obtained from ATCC and used within 6 months of acquisition, PFKFB4^7 ear pinna Fibroblasts isolated from TamCre/loxP/PFKFB4^−/− mice were immortalized as described previously (Chesney J et al. Fructose-2,6-bisphosphate synthesis by 6-phosphofructo-2-kinase/fructose-2,6-bisphosphatase 4 (PFKFB4) is required for the glycolytic response to hypoxia and tumor growth. Oncotarget 2014 Aug. 30; 5(16):6670-86). Normal bronchial epithelial cells (NHBE) were obtained from Lonza and NHBE cells expressing telomerase, SV40 large T antigen and activated Ras (hT/LT/Ras) were a gift from Dr. B. J. Rollins, Dana Farber Cancer Institute. All cell lines were tested and found negative for mycoplasma (PCR Mycoplasma Detection Kit, ABM). […]
(§1) Cell Viability: Cells were incubated in 20% trypan blue (Sigma) for 5 minutes. Cells excluding trypan blue were counted using a standard hemocytometer (Hausser Scientific) to determine total numbers of viable cells. Data are expressed as mean±SD of three experiments.

[4] = test system: LNCaP; assay: viable cell count of LNCaP cells; assay type: cell-based; settings: 48 hours
Method: as §1

[5] = test system: Lewis lung carcinomas; assay: Lewis lung carcinoma tumor growth in mice; assay type: in vivo, C57BL/6 mice
[6] = two-week oral toxicity study; assay type: in vivo; settings: C57BL/6 mice, 120 mg/kg PO for two weeks
Method: Given the potential usefulness of oral administration in terms of cost and convenience, we elected to pursue this route in subsequent toxicity and efficacy pre-clinical studies. Initially, we dosed C57BL/6 mice with 120 mg/kg PO for two weeks and analyzed the effect on complete blood counts, electrolytes, hepatic and renal function, body mass and the gross and histological appearance of the brain, heart, lungs, liver, kidneys and spleen. […] Next, the effects of oral administration of 5MPN on intratumoral F2,6BP and glucose uptake by LLC xenografts was examined. […] It was confirmed that 5MPN caused a G1 arrest in LLC cells in vitro similar to H460 cells (FIG. 4G). The number of Ki67-positive cells was examined since Ki-67 expression correlates with later S and G2 phases of the cell cycle (Sasaki K et al. The cell cycle associated change of the Ki-67 reactive nuclear antigen expression. J Cell Physiol 1987 December; 133(3):579-84).

[7] = test system: H460 cells; assay: Glycolysis assay (3H2O from 5-[3H]glucose) in H460 cells; assay type: cell-based, human; settings: H460, 10 μM 5MPN, 6-72 hours
Method: Cells growing in 6-well plates were incubated in 500 μl of complete medium containing 1 μCi of 5-[^3H]glucose per well for 60 min in 5% CO2 at 37° C. Media was collected, ^3H2O formed via glycolysis from the 5-[^3H]glucose measured and counts normalized as previously described. For example, the medium was then collected and centrifuged to pellet any suspended cells. To separate the ^3H2O formed via glycolysis from the 5-[^3H]glucose added to the medium, an evaporation technique in a sealed system was utilized. Briefly, 150 μl aliquots of medium were added to open tubes that were placed upright inside scintillation vials containing 1 ml of H2O. The scintillation vials were sealed, and the ^3H2O produced by glycolysis through enolase and released to the medium was allowed to equilibrate with the H2O in the outer vial for 48 h at 37° C. The amounts of ^3H2O that had diffused into the surrounding H2O was measured on a Tri-Carb 2910 liquid scintillation analyzer (Perkin Elmer) and compared with ^3H2O and 5-[^3H]glucose standards. Protein concentration was determined using the BCA assay and counts were normalized to protein concentration. All data are expressed as the mean±SD of three experiments. Statistical significance was assessed by the two-sample t test (independent variable).

human recombinant PFKFB4, sequence (Q16877 whole entry): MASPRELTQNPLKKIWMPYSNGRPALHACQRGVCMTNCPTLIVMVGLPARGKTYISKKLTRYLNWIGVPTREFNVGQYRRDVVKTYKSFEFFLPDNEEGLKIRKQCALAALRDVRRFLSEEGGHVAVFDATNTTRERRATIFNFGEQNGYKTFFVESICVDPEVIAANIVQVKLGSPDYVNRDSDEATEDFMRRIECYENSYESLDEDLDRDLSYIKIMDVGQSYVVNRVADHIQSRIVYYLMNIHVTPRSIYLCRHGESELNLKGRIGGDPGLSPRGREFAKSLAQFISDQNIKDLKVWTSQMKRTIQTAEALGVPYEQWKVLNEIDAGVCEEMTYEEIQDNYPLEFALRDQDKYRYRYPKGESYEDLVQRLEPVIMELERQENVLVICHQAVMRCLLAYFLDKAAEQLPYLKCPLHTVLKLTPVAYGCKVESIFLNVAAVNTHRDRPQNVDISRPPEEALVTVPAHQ

Structure (SMILES): COc1cccc2c(NCCCCCO[N+](=O)[O-])ccnc12 [5MPN, 5-[(8-methoxyquinolin-4-yl)amino]pentyl nitrate]
- PFKFB4 activity (kinase activity of recombinant PFKFB4) ([1]; 0, 0.1, 1 or 10 μM 5MPN, F6P 0-2000 μmol/L): significantly inhibited
- mode of inhibition, Lineweaver-Burk analyses ([1]; F6P binding site): competitive inhibitor
- intratumoral F2,6BP [2]: marked reduction
- cell growth, live cells [3]: suppressed similar to other transformed cells
- growth, viable cells [4]: dose-dependent reduction in growth
- body weight ([5]; LLC-bearing C57BL/6 mice, 120 mg/kg oral daily): without affecting body weight
- tumor growth of Lewis lung carcinomas ([5]; syngeneic C57BL/6 mice, 120 mg/kg daily by gavage, two weeks): suppressed the growth
- toxicity: blood counts, electrolytes, hepatic and renal function, body mass, organ histology, behavioral or clinical changes [6]: no signs of toxicity
- glycolysis [7]: reduced
